Values after ≈ are worked out from the molar mass of the structure shown.
Legend:
[1] = test system: aspergillus fumigatus infection of BEAS2B cells; experiment: Aspergillus fumigatus infection of bronchial epithelial cells (GM in supernatant); type: cell-based; conditions: bronchial epithelial cells infected with Aspergillus fumigatus; read-out: MIC50 Infection of BEAS2B cells
Procedure: BEAS2B cells were seeded in 96-well plates (100 µL; 30,000 cells / well; Catalogue No 3596, Sigma Aldrich, Dorset, UK) in 10% FBS RPMI-1640 and were then incubated (37° C., 5% CO2) for one day before experimentation. Test compounds (0.5 µL DMSO solution) or vehicle (DMSO) were added to each well to give a final DMSO concentration of 0.5%. BEAS2B cells were incubated with test compounds for 1 hr (35° C., 5% CO2) before infection with aspergillus fumigatus (20 µL; Public Health England) conidia suspension (0.5×10^5 /ml in 10% FBS RPMI-1640). The plate was incubated for 24 hr (35° C., 5% CO2). Supernatant (50 µL) was collected and transferred to a PCR plate (Catalogue No L1402-9700, Starlab, Milton Keynes, UK), which was frozen (-20° C.) until use. After thawing, supernatant (5 µL) was diluted 1:20 by adding R7-PBS solution (95 µL; 1:4 R7 to PBS; Bio-Rad Laboratories, Redmond, WA, USA). GM levels in these samples (50 µL) were measured using Platelia GM-EIA kits (Bio-Rad Laboratories, Redmond, WA, USA). The percentage inhibition for each well was calculated and the IC50 value was calculated from the concentration-response curve generated for each test compound.

[2] = test system: Aspergillus fumigatus NCPF7100; experiment: Broth microdilution assay (modified EUCAST); type: cell-based; conditions: Aspergillus fumigatus, NCPF7100, read-out: MIC75 against Aspergillus fumigatus isolate NCPF7100
[3] = test system: Aspergillus fumigatus L98H (TR34/L98H); experiment: Broth microdilution assay (modified EUCAST); type: cell-based; conditions: Aspergillus fumigatus, read-out: MIC75 against Aspergillus fumigatus isolate L98H
Procedure: (§1) This assay was conducted using a modified method published by EUCAST (Rodriguez-Tudela et al., 2008). Spores of aspergillus fumigatus (NCPF2010, NCPF7010 (Methionine 220 mutation), NCPF7099 (Glycine G54 mutation) from Public Health England, Wiltshire; TR34/L98H mutants from St Louis Hospital, Paris, France) were cultured in Sabouraud dextrose agar for 3 days. A stock spore suspension was prepared from a Sabouraud dextrose agar culture by washing with PBS-tween (10 mL; PBS containing 0.05% Tween-20, 100 U/mL Penicillin and 100 U/mL Streptomycin). The spore count was assessed using a Neubauer haemocytometer and then adjusted to 10^6 spores/mL with PBS. A working suspension of spores (2 × 10^5 spores/mL) was prepared in filter sterilised, BSA MOPS RPMI-1640 (50 mL; RPMI-1640 containing 2 mM L-glutamine, 0.5% BSA, 2% glucose, 0.165 M MOPS, buffered to pH 7 with NaOH). For the assay, BSA MOPS RPMI-1640 (50 µL/well) was added throughout the 384-well plate (Catalogue number 353962, BD Falcon, Oxford, UK) first. Test compounds (0.5 µL DMSO solution) were then added in quadruplicate using an Integra VIAFLO 96 (Integra, Zizers, Switzerland), and mixed well using a plate mixer. Subsequently 50 µL of the working spore suspension prepared above was added to all wells except non-spore control wells. For non-spore control wells, BSA MOPS-RPMI solution (50 µL/well) was added instead. The plate was covered with a plastic lid, and incubated (35° C. with ambient air) for 48 hr. The OD of each well at 530 nm was determined using a multi-scanner (Clariostar: BMG, Buckinghamshire, UK). The percentage inhibition for each well was calculated and the MIC50, MIC75 and MIC90 values were calculated from the concentration-response curve generated for each test compound.

[4] = test system: Aspergillus fumigatus NCPF7099; experiment: Broth microdilution assay (modified EUCAST); type: cell-based; conditions: Aspergillus fumigatus, NCPF7099, n = 3, read-out: MIC75 against Aspergillus fumigatus isolate NCPF7099
Procedure: as §1

[5] = test system: Aspergillus fumigatus NCPF2010; experiment: Broth microdilution assay (modified EUCAST); type: cell-based; conditions: Aspergillus fumigatus, NCPF2010, read-out: MIC75 against Aspergillus fumigatus isolate NCPF2010
Procedure: as §1

[6] = Cell viability: resazurin assay; type: cell-based, human; conditions: human, BEAS2B cells; n = 3-5
Procedure: BEAS2B cells were seeded in 384-well plates (100 µL; 3000 / well /; BD Falcon, Catalogue No 353962) in RPMI-LHC8 (RPMI-1640 and LHC8 media combined in equal proportions) one day before experimentation. For cell-free control wells, RPMI-LHC8 (100 µL) was added. Test compounds (0.5 µL of a DMSO solution) were added to give a final DMSO concentration of 0.5% using an Integra VIAFLO 96 (Integra, Zizers, Switzerland). BEAS2B cells were incubated with each test compound for 1 day (37° C. / 5% CO2 in RPMI-LHC8). After addition of resazurin stock solution (5 µL, 0.04%) the plates were incubated for a further 4 hr (37° C. / 5% CO2). The fluorescence of each well at 545 nm (excitation) and 590 nm (emission) was determined using a multi-scanner (Clariostar: BMG Labtech). The percentage loss of cell viability was calculated for each well relative to vehicle (0.5% DMSO) treatment. Where appropriate, a CC50 value was calculated from the concentration-response curve generated from the concentration-response curve for each test compound.

[7] = test system: aspergillus fumigatus (ATCC 13073 [strain: NIH 5233]); experiment: In vivo anti-fungal activity, prophylactic and therapeutic treatment of infected immunocompromised neutropenic mice; design: species or system A/J mice; conditions: prophylactic treatment (days 0, 1, 2 and 3); 0.4 mg/mL

Row | SMILES | MIC50 [1] | MIC [2] | MIC [3] | MIC [4] | MIC [5] | CC50 at 1 day [6] | % Inhibition versus Infected Controls, GM in BALF [7] | % Inhibition versus Infected Controls, GM in serum [7] | % Inhibition versus Infected Controls, Lung Fungal Load [7]
1 | Cc1cc(N2CCN(c3ccc(C(=O)Nc4ccc(C#N)cn4)cc3)CC2)ccc1OC[C@@H]1CO[C@@](Cn2cncn2)(c2ccc(F)cc2F)C1 [Example 7] | 0.0125 µM (≈ 0.00863 µg/mL) | 0.00407 µM (≈ 0.00281 µg/mL) | 0.0419 µM (≈ 0.0289 µg/mL) | 0.0141 µM (≈ 0.00974 µg/mL) | 0.00586 µM (≈ 0.00405 µg/mL) | > 14.5 µM |  |  | 
2 | Cc1cc(N2CCN(c3ccc(C(=O)Nc4cccc(C#N)n4)cc3)CC2)ccc1OC[C@@H]1CO[C@@](Cn2cncn2)(c2ccc(F)cc2F)C1 [Example 36, 4-(4-(4-(((3R, 5R)-5-((1H-1,2,4-triazol-1-yl)methyl)-5-(2,4-difluorophenyl)tetrahydrofuran-3-yl)methoxy)3-methylphenyl)piperazin-1-yl)-N-(6-cyanopyridin-2-yl)benzamide] | 0.00352 µM (≈ 0.00243 µg/mL) | 0.0346 µM (≈ 0.0239 µg/mL) | 0.134 µM (≈ 0.0926 µg/mL) | 0.0445 µM (≈ 0.0307 µg/mL) | 0.041 µM (≈ 0.0283 µg/mL) | > 14.5 µM |  |  | 
3 | N#Cc1ccc(NC(=O)c2ccc(N3CCN(c4ccc(OC[C@@H]5CO[C@@](Cn6cncn6)(c6ccc(F)cc6F)C5)c(CO)c4)CC3)cc2)nc1 [Example 38, 4-(4-(4-(((3R, 5R)-5-((1H-1,2,4-triazol-1-yl)methyl)-5-(2,4-difluorophenyl)tetrahydrofuran-3-yl)methoxy)-3-hydroxymethylphenyl)piperazin-1-yl)-N-(5-cyanopyridin-2-yl)benzamide] | 0.00486 µM (≈ 0.00343 µg/mL) | 0.0336 µM (≈ 0.0237 µg/mL) | 0.0654 µM (≈ 0.0462 µg/mL) | 0.0319 µM (≈ 0.0225 µg/mL) | 0.0124 µM (≈ 0.00876 µg/mL) | > 14.1 µM |  |  | 
4 | Cc1cc(N2CCN(c3ccc(C(=O)Nc4ccc(OC(F)(F)F)cn4)cc3)CC2)ccc1OC[C@@H]1CO[C@@](Cn2cncn2)(c2ccc(F)cc2F)C1 [Example 39, 4-(4-(4-(((3R,5R)-5-((1H-1,2,4-triazol-1-yl)methyl)-5-(2,4-difluorophenyl)tetrahydrofuran-3-yl)methoxy)-3-methylphenyl)piperazin-1-yl)-N-(5-(trifluoromethoxy)pyridin-2-yl)benzamide] |  |  | 0.0659 µM (≈ 0.0494 µg/mL) |  | 0.052 µM (≈ 0.039 µg/mL) | > 13.3 µM |  |  | 
5 | Cc1cc(N2CCN(c3ccc(C(=O)Nc4ccc(Cl)c(F)c4)cc3)CC2)ccc1OC[C@@H]1CO[C@@](Cn2cncn2)(c2ccc(F)cc2F)C1 [Example 30, 4-(4-(4-(((3R, 5R)-5-((1H-1,2,4-triazol-1-yl)methyl)-5-(2,4-difluorophenyl)tetrahydrofuran-3-yl)methoxy)-3-methylphenyl)piperazin-1-yl)-N-(4-chloro-3-fluorophenyl)benzamide] | 1.05 µM (≈ 0.753 µg/mL) | 0.0413 µM (≈ 0.0296 µg/mL) | 0.191 µM (≈ 0.137 µg/mL) | 0.0347 µM (≈ 0.0249 µg/mL) | 0.0584 µM (≈ 0.0419 µg/mL) | > 13.9 µM |  |  | 
6 | Cc1cc(N2CCN(c3ccc(C(=O)Nc4ccc(F)cc4)cc3)CC2)cc(C)c1OC[C@@H]1CO[C@@](Cn2cncn2)(c2ccc(F)cc2F)C1 [Example 15, 4-(4-(4-(((3R,5R)-5-((1H-1,2,4-triazol-1-yl)methyl)-5-(2,4-difluorophenyl)tetrahydrofuran-3-yl)methoxy)-3,5-dimethylphenyl)piperazin-1-yl)-N-(4-fluorophenyl)benzamide] | 0.00764 µM (≈ 0.00532 µg/mL) | 0.00845 µM (≈ 0.00589 µg/mL) | > 1.44 µM | 0.0184 µM (≈ 0.0128 µg/mL) | 0.029 µM (≈ 0.0202 µg/mL) | > 14.4 µM |  |  | 
7 | COc1cc(N2CCN(c3ccc(OC[C@@H]4CO[C@@](Cn5cncn5)(c5ccc(F)cc5F)C4)c(C)c3)CC2)ccc1C(=O)Nc1ccc(F)cc1 [Example 35, 4-(4-(4-(((3R,5R)-5-((1H-1,2,4-triazol-1-yl)methyl)-5-(2,4-difluorophenyl)tetrahydrofuran-3-yl)methoxy)-3-methylphenyl)piperazin-1-yl)-N-(4-fluorophenyl)-2-methoxybenzamide] | 0.125 µM (≈ 0.0891 µg/mL) | 0.111 µM (≈ 0.0791 µg/mL) | 0.178 µM (≈ 0.127 µg/mL) | 0.109 µM (≈ 0.0777 µg/mL) | 0.0634 µM (≈ 0.0452 µg/mL) | > 14 µM |  |  | 
8 | Cc1cc(N2CCN(c3ccc(C(=O)Nc4ccc(F)c(F)c4)cc3)CC2)ccc1OC[C@@H]1CO[C@@](Cn2cncn2)(c2ccc(F)cc2F)C1 [Example 27, 4-(4-(4-(((3R, 5R)-5-((1H-1,2,4-triazol-1-yl)methyl)-5-(2,4-difluorophenyl)tetrahydrofuran-3-yl)methoxy)-3-methylphenyl)piperazin-1-yl)-N-(3,4-difluorophenyl)benzamide] |  | 0.0223 µM (≈ 0.0156 µg/mL) | 0.136 µM (≈ 0.0953 µg/mL) | 0.0127 µM (≈ 0.0089 µg/mL) | 0.0193 µM (≈ 0.0135 µg/mL) | > 14.3 µM |  |  | 
9 | O=C(Nc1ccc(F)cc1)c1ccc(N2CCN(c3ccc(OCC4CO[C@@](Cn5cncn5)(c5ccc(F)cc5F)C4)c(F)c3)CC2)cc1 (stereo in doubt) [Example 17, 4-(4-(4-(((3R, 5R)-5-((1H-1,2,4-triazol-1-yl)methyl)-5-(2,4-difluorophenyl)tetrahydrofuran-3-yl)methoxy)-3-fluorophenyl)piperazin-1-yl)-N-(4-fluorophenyl)benzamide] |  | 0.0133 µM (≈ 0.00913 µg/mL) | 0.409 µM (≈ 0.281 µg/mL) | 0.0185 µM (≈ 0.0127 µg/mL) | 0.00215 µM (≈ 0.00148 µg/mL) | > 14.6 µM | 45% | 72% | 83%
10 | N#Cc1ccc(NC(=O)c2ccc(N3CCN(c4ccc(OCC5CO[C@@](Cn6cncn6)(c6ccc(F)cc6F)C5)c(F)c4)CC3)cc2)c(F)c1 (stereo in doubt) [Example 24, 4-(4-(4-(((3R, 5R)-5-((1H-1,2,4-triazol-1-yl)methyl)-5-(2,4-difluorophenyl)tetrahydrofuran-3-yl)methoxy)3-fluorophenyl)piperazin-1-yl)-N-(4-cyano-2-fluorophenyl)benzamide] |  | 0.014 µM (≈ 0.00996 µg/mL) | 0.191 µM (≈ 0.136 µg/mL) | 0.0205 µM (≈ 0.0146 µg/mL) | 0.0099 µM (≈ 0.00705 µg/mL) | > 14.1 µM |  |  | 
11 | Cc1cc(N2CCN(c3ccc(C(=O)Nc4ccc(Cl)cn4)cc3)CC2)ccc1OC[C@@H]1CO[C@@](Cn2cncn2)(c2ccc(F)cc2F)C1 [Example 41, 4-(4-(4-(((3R, 5R)-5-((1H-1,2,4-triazol-1-yl)methyl)-5-(2,4-difluorophenyl)tetrahydrofuran-3-yl)methoxy)-3-methylphenyl)piperazin-1-yl)-N-(5-chloropyridin-2-yl)benzamide] |  |  | 0.261 µM (≈ 0.183 µg/mL) |  | 0.0576 µM (≈ 0.0403 µg/mL) | > 14.3 µM |  |  | 
